We go through five compounds from patent publication US20260274810A1, “NOVEL MITOFUSIN INHIBITORS” (ALBERT EINSTEIN COLLEGE OF MEDICINE, priority 2023, published 2026).

Numbered stars: 1 amine (or outer) side, 2 acyl side, 3 side chain; on linkers, the order of the positions; unused ones are H or OH. Bridge positions count the residues as written; N and C are the ends. Square brackets hold non-standard residues; d marks the D form. Peptide text beside a SMILES is read from it. I, II: the chains in the order shown. Hexamethylenediamine = C(CCCN[*:2])CCN[*:1]; Dip = N[C@H](C(=O)O)C(c1ccccc1)c1ccccc1; Chg = N[C@H](C(=O)O)C1CCCCC1; NMeA = CN[C@@H](C)C(=O)O

The test system of one series is cells. The series is described as follows: Cell death assay (Annexin V / PI). The format is cell-based. How it is done: Cell death assay. Cells (2×10^5 cells/well) were seeded in a 6-well plate and treated with the indicated drugs for 6 hours. Cells were dissociated using Accutase (Thermo Fisher; Cat. #00-4555-56) in order to avoid accidental exposure of phosphatidylserine on the outer plasma membrane. Cell death was evaluated with Dead Cell Apoptosis Kit with Annexin V Alexa Fluor™ 488 & Propidium Iodide (Thermo Fisher; Cat. #V13241) according to manufacturer's protocol. Data was acquired by BD LSRII flow cytometer system using BD FACSDiva software. Data was analyzed by FlowJo (BD).

The subject of the next series is MFNs. The note with it: reported small molecule; cited from earlier work.
The test system of another series is caspase-3/7 in MEFs. Put plainly: Caspase-3/7 activation assay. The format is cell-based, mouse. The note with it: 6 hr. As for the experimental part: Caspase-3/7 activation assay. Cells (5×10^3 cells/well) were seeded in a 96-well white plate and treated with MASM7, MFI8. Caspase 3/7 activation was measured after 6 hr by addition of the Caspase-Glo 3/7 reagent according to the manufacturer's protocol (Promega). Luminescence was detected by a F200 PRO microplate reader (TECAN). Caspase assays were performed in at least triplicate and the data normalized to vehicle-treated control wells. Dilutions of MASM7 or MFI8 were performed using a TECAN D300e Digital Dispenser from 10 mM stocks.

A further series addresses T1, HR2 domain of MFN2 (Homo sapiens, UniProt O95140).
T1 construct: Human MFN2 residues 678-757 corresponding to the HR2 domain; made in house; host or cells: E. coli BL21(DE3) CodonPlus (DE3)-RIPL
T1 sequence (O95140 678-757): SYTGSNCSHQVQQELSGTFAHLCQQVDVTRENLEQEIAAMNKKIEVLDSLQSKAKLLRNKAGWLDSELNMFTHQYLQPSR
Put plainly: Microscale thermophoresis (MST) binding. A general note: In MST a laser heats a spot of the sample, and binding alters the fluorescence response.

The subject of another series is MEFs. Put plainly: Mitochondrial aspect ratio (Mito AR), live cell imaging. The note with it: for mitochondrial aspect ratio / mitochondrial fragmentation: WT cells.
A short description of series [1]: mouse liver microsome assay. The format is in vitro ADME. The note with it: FIG. 2. A general note: Microsomes from liver hold many membrane-bound enzymes, among them those of drug oxidation.

Procedure for HR2 domain of MFN2: Freshly purified His-tagged MFN2-HR2 domain was used for Microscale Thermophoresis (MST) binding studies. For protein labelling, a fresh stock of 5 M His-tag-RED-tris-NTA 2nd generation dye (Nanotemper) in 25 mM Hepes pH 7.5, 100 mM NaCl, 0.005% Tween-20 (assay buffer) was used to label 500 nM of MFN2-HR2 in the same buffer. The labeling reaction was incubated for 30 min at RT and centrifuged at 15.000×g at 4° C. for 10 min. Labelled protein from the supernatant was kept on ice and used immediately. Compounds were serially diluted in 100% DMSO. Immediately before mixing with labeled protein, the dilution series was transferred in assay buffer to reach 2% DMSO. 10 μl of each compound in the final series was mixed with 10 µl of labeled protein and samples were incubated for 5 min at 30° C. before MST measurement using a MonolithNT.115 instrument (Nanotemper). Peptides were diluted in assay buffer plus 2% DMSO and treated as above. […] Kd values were obtained from non-linear regression fits of normalized data to a three or four parameter logistic curve, using GraphPad Prism 9.

Consider `CN[C@@H](C)C(=O)N[C@H](C(=O)N1CCC[C@H]1C(=O)N[C@H](C(=O)NCCCCCCNC(=O)[C@@H](NC(=O)[C@@H]1CCCN1C(=O)[C@@H](NC(=O)[C@H](C)NC)C1CCCCC1)C(c1ccccc1)c1ccccc1)C(c1ccccc1)c1ccccc1)C1CCCCC1` [BV6, reference compound] (I: H-[NMeA][Chg]P[Dip] / II: H-[NMeA][Chg]P[Dip]; linker I:C-II:C via Hexamethylenediamine), for which the “cell death on BV6 treatment” value in the series with cells (deletion of MFNs) was “sensitized cells to BV6 treatment”.

For `Cc1oncc1C(=O)Nc1ccc(C(F)(F)F)cc1` [Leflunomide], the MFNs protein levels result in the series with MFNs was “alters MFNs protein levels through loss of pyrimidine synthesis”.

With `Cc1cccc(NC(C)c2ccccc2O)c1C` (stereo not shown) [MFI22], in the series on caspase-3/7 in MEFs, the caspase-3/7 activity entry was “did not increase caspase-3/7 activity”. Besides, the “binding to the HR2 domain of MFN2” value on HR2 domain of MFN2 is “did not demonstrate measurable binding”. For the same compound, the “mitochondrial aspect ratio / mitochondrial fragmentation” value with MEFs was “significantly reduced the capacity of the compound to promote mitochondrial fragmentation”. In addition, the “sensitization to BV6-induced cell death” value with cells (combined with BV6) is “did not sensitize cells to BV6 treatment”.

With `Cc1cccc(NC(C)c2cccc(Cl)c2)c1C` (stereo not shown) [MFI26], at HR2 domain of MFN2, the “binding to the HR2 domain of MFN2” value is listed as “did not demonstrate measurable binding”. For the same compound, the “mitochondrial aspect ratio / mitochondrial fragmentation” value in the series on MEFs is on record as “detrimental for the activity”.

Regarding `Cc1cccc(NC(=O)c2cc(Cl)cc(-c3ccccn3)c2O)c1C` [MFI43], the “half life (t½)” value in series [1] was “increased half life”. For the same compound, the IC50 (in general, the concentration needed to halve the response being measured) in the series on MEFs (Mus musculus, 6 h, read-out: IC50 (decrease of Mito AR)) is 1.79 µM.
